Test results: patent US7183112B2, “Uses for anti-malarial therapeutic agents” (APT Pharmaceuticals, LLC, priority 1999, dated 2007)

Tests used:
Ascaris-sensitized sheep = test: Airway hyperresponsiveness to carbachol (post/pre challenge PC400 ratio), Example 3; assay type: in vivo
Experimental: Dose Response Curves to Inhaled Carbachol: For the carbachol dose response curves, measurements of SRL were repeated immediately after inhalation of buffer and after each administration of 10 breaths of increasing concentrations of carbachol solution (0.25%, 0.5%, 1.0%, 2.0% and 4.0% w/v). To assess airway responsiveness, the cumulative carbachol dose in breath units (BU) that increased SRL 400% over the post-buffer value (i.e. PC400) was calculated from the dose response curve. One breath unit was defined as one breath of a 1% w/v carbachol solution. The same basic protocol was used for all studies in Example 3. This basic protocol consisted of first obtaining baseline dose response curves to aerosol carbachol 1–3 days prior to antigen challenge. Then, on the day of antigen challenge, values of specific lung resistance (SRL) were measured at baseline and, then, 30 min after drug or vehicle (0.9% saline) treatment. The animals were, then, challenged with Ascaris suum antigen and SRL was remeasured immediately after challenge, hourly from 1–6 h after challenge and on the half-hour from 6 ½–8 h after challenge. Measurements of SRL were obtained 24 h after challenge followed by the 24 h post challenge dose response curve. Studies differed in time of treatment, treatment dose or route of administration. […] A second control challenge was done 2 weeks after the drug trial to insure that the 4 day treatment regimen had no carry-over effect. […] A second control challenge was done 2 weeks after the drug trial to insure that the 4 day treatment regimen had no carry-over effect. […] A second; control challenge was done 2 weeks after the drug trial to insure that the 4 day treatment regimen had no carry-over effect. […] Challenges were separated by 2 weeks. […] On the 15th day, the animals were treated and 30 min later, challenged with antigen. On the following day, after determining the post challenge PC400, the animals resumed treatment for another 14 days, after which, they were challenged with antigen (day 29). The animals were then left untreated for 14 days, after which an antigen challenge was conducted (day 43) and, then, this procedure was repeated after another 2 weeks (day 57). For each series, a repeated measures analysis of variance was performed to see if there were overall differences between the historical control the drug trial and the 2 week follow-up control or, in the case of experiments described in series 4 and 5, amongst the doses and different times, respectively. If a significant overall effect was found, then a two-tailed paired t-test were used to assess pairwise differences. The variables assessed were the peak early airway response (maximum increase in SRL 0–4 h after challenge), peak late airway response (maximum increase in SRL between 5–8 h after antigen challenge, irrespective of when this increase occurred for each sheep in each trial) and on the ratio of post challenge PC400 to pre challenge PC400. (Note: a ratio close to 1 indicates no airway hyperresponsiveness, whereas, a ratio close to 0.5 indicates the development of airway hyperresponsiveness.). Peak responses were used because they are the most conservative estimate of the overall effect. Values in the text and figures are mean±se for 3 sheep.

IL-4 = conditions: Seggev J Immunol 150:62A; cited from earlier work

With CCN(CCO)CCCC(C)Nc1ccnc2cc(Cl)ccc12 (stereo not drawn) [HCQ, hydroxychloroquine] the “effect on airway hyperresponsiveness (AHR)” value (Ascaris-sensitized sheep; aerosol 1 mg/kg twice a day for 4 days) was “protection”, the “effect on antigen-induced AHR” value (Ascaris-sensitized sheep; aerosol 2 mg/kg once a day for 4 days) was “protection” and the “effect on antigen-induced AHR” value (Ascaris-sensitized sheep; chronic treatment, aerosol 2 mg/kg once a day for up to 4 weeks) was “protection”. For the same compound, the “effect on antigen-induced AHR” value (Ascaris-sensitized sheep; dose response, aerosol 0.2, 0.6 and 2 mg/kg once a day for 4 days) was “protection”, the “effect on antigen-induced AHR” value (Ascaris-sensitized sheep; p.o. 1 mg/kg twice a day for 4 days) was “did not protect” and the “effect on the actions of IL-4” value (IL-4) was “blocks”.
